# Reference: paper PMC2395599, “Low Dose Histone Deacetylase Inhibitor, Depsipeptide (FR901228), Promotes Adenoviral Transduction in Human Rhabdomyosarcoma Cell Lines” (Sarcoma, 2004)
# “And” between values parts separate entries of the source, which are not always exact repeats. Identical values can stand only once.
# Assays:
# [1] = system: adenovirus AdU1 (GFP) uptake in RMS cell lines; assay: Adenoviral (AdU1) GFP expression in RMS cell lines pretreated with depsipeptide, Western blot densitometry; format: cell-based, human; conditions: 0.5 ng/ml 72 h pretreatment; for fold GFP expression: Fig. 2b
# Experimental: (§1) Sarcoma, March 2004, VOL. 8, NO. […] Methods. […] Results. […] Conclusions. […] Human av integrin primers:8 sense 50 -[…] AGT and antisense 50 -CAGTG[…] […] Cells were harvested after 72 h of treatment. Cell number was determined using a colorimetric MTT assay. […] The cells were replenished with complete media. […] References 1. […] Science 1997; 275: 1320-3. 2. […] J Virol 2000; 74: 42-8. 3. […] Virology 2000; 268: 382-90. 4. Wickham TJ, Mathias P, Cheresh DA, Nemerow GR. […] Cell 1993; 73: 309-19. 5. […] J Biol Chem 2000; 275: 14729-35. 6. […]. […] Cancer Res 1998; 58: 5738-48. 7. […] Cancer Res 1999; 59: 325-30. 8. […] Cancer Res 2001; 61: 6328-30. 9. […] Cancer Res 2001; 61: 2953-60. 10. […] J Biol Chem 1997; 272: 6479-89. 11.
# [2] = system: RMS cell lines (RD4a, CTR, RH5, RH13, RH18, RH30); conditions: 0.5 ng/ml, 72 h, six RMS cell lines, MTT, triplicate, DMSO controls
# [3] = system: coxackie and adenovirus receptor (CAR); assay: Semi-quantitative RT-PCR for CAR RNA expression in RMS cells; format: cell-based, human; conditions: 0.5 ng/ml, 72 h; for fold CAR expression: Fig. 3a
# Experimental: as §1
# av integrin = assay: Semi-quantitative RT-PCR for αv integrin RNA expression in RMS cells; format: cell-based, human; conditions: 0.5 ng/ml, 72 h; for fold av integrin expression: Fig. 3b
# Experimental: as §1
# [4] = system: acetylated histone H3 in CTR cells; assay: Western blot analysis for histone H3 acetylation; format: cell-based, human; conditions: CTR cell line, 0.5 ng/ml, 72 h, histone H3 loading control
# Experimental: as §1
# [5] = range over four of six RMS cell lines, RT-PCR normalised to GAPDH
compound,measurement,setting,value
"C/C=C1\NC(=O)[C@H]2CSSCC/C=C/[C@H](CC(=O)N[C@H](C(C)C)C(=O)N2)OC(=O)[C@H](C(C)C)NC1=O [depsipeptide (FR901228), Depsipeptide (FR901228)]",GFP protein expression,[1]; CTR,No GFP protein expression was detected
same,fold GFP expression,[1]; RD4a,2.7 X
same,fold GFP expression (adenoviral uptake),"[1]; RH5, Fig. 2b and text",2.6 X and 2.8 X
same,fold GFP expression,[1]; RH13,2.8 X
same,fold GFP expression,[1]; RH18,7.8 X
same,fold GFP expression,[1]; RH30,8.6 X
same,growth inhibition of RMS cells compared to controls,[2],less than 20%
same,CAR expression,[3]; CTR,lack of CAR expression
same,fold CAR expression,[3]; RD4a,4.8 X
same,fold CAR expression,[3]; RH5,1.2 X
same,fold CAR expression,[3]; RH13,3.3 X
same,fold CAR expression,[3]; RH18,2.8 X
same,fold CAR expression,[3]; RH30,8.1 X
same,fold increase in CAR expression compared to untreated cells,[3]; [5],2.8-8.1 fold
same,fold av integrin expression,av integrin; CTR,2.2 X and 2 X
same,fold av integrin expression,av integrin; RD4a,1.3 X
same,fold av integrin expression,av integrin; RH5,6.6 X
same,fold av integrin expression,av integrin; RH13,6.9 X
same,fold av integrin expression,av integrin; RH18,1.5 X
same,fold av integrin expression,av integrin; RH30,1.1 X
same,fold modulation of av integrin expression,av integrin; [5],1.5-6.9 fold
same,acetylated histone H3,[4],increase in acetylated histone H3
